# Key:
# [1] = test system: Vibrio fluvialis; assay: agar disc diffusion assay, inhibition zone; format: cell-based; conditions: 30° C., 24 h, read-out: Inhibition Zone Width; for zone of inhibition at 50 µg/disc: 50 μg/disc
# Description: (§1) Antibacterial activity was tested against bacteria using an agar disc diffusion assay method. Sterile paper discs (6 mm i.d.) impregnated with the substance under test at a concentration of 50 μg disc^−1 were applied onto the surface of an agar plate (plastic Petri dish) inoculated with one strain with sterile forceps and gently pressed down to ensure good contact with the surface. Blank discs treated with the same volume of DMSO were added. A control disc, containing streptomycin was used. After the application of discs, the plates were incubated at 30° C. for 24 h, and then the size of the inhibition zone was measured.
# as §1, with “using” for “using an”, “assay.” for “assay method.”, “disc” for “disc,”, “h. The” for “h, and then the”, “measured. The results are presented in Table 8 and Table 9 for Cyclo (D)-Pro-(D)-Phe and b3-methyl-N-(2-phenylethyl)butanamide, respectively.” for “measured.”
# [2] = test system: Shewanella algae; assay: agar disc diffusion assay, inhibition zone; format: cell-based; conditions: 30° C., 24 h, read-out: Inhibition Zone Width; for zone of inhibition at 50 µg/disc: 50 μg/disc
# Description: as §1
# as §1, with “using” for “using an”, “assay.” for “assay method.”, “disc” for “disc,”, “h. The” for “h, and then the”, “measured. The results are presented in Table 8 and Table 9 for Cyclo (D)-Pro-(D)-Phe and b3-methyl-N-(2-phenylethyl)butanamide, respectively.” for “measured.”
# [3] = test system: Pseudoalteromonas piscida; assay: agar disc diffusion assay, inhibition zone; format: cell-based; conditions: 30° C., 24 h, read-out: Inhibition Zone Width; for zone of inhibition at 50 µg/disc: 50 μg/disc
# Description: as §1
# as §1, with “using” for “using an”, “assay.” for “assay method.”, “disc” for “disc,”, “h. The” for “h, and then the”, “measured. The results are presented in Table 8 and Table 9 for Cyclo (D)-Pro-(D)-Phe and b3-methyl-N-(2-phenylethyl)butanamide, respectively.” for “measured.”
# [4] = test system: Pseudoalteromonas sp.; assay: agar disc diffusion assay, inhibition zone; format: cell-based; conditions: 30° C., 24 h, read-out: Inhibition Zone Width; for zone of inhibition at 50 µg/disc: 50 μg/disc
# Description: as §1
# as §1, with “using” for “using an”, “assay.” for “assay method.”, “disc” for “disc,”, “h. The” for “h, and then the”, “measured. The results are presented in Table 8 and Table 9 for Cyclo (D)-Pro-(D)-Phe and b3-methyl-N-(2-phenylethyl)butanamide, respectively.” for “measured.”
# [5] = test system: Moraxella phenylpyruvica; assay: agar disc diffusion assay, inhibition zone; format: cell-based; conditions: Psychrobacter phenylpyruvicus, 30° C., 24 h, read-out: Inhibition Zone Width; for zone of inhibition at 50 µg/disc: 50 μg/disc
# Description: as §1
# as §1, with “using” for “using an”, “assay.” for “assay method.”, “disc” for “disc,”, “h. The” for “h, and then the”, “measured. The results are presented in Table 8 and Table 9 for Cyclo (D)-Pro-(D)-Phe and b3-methyl-N-(2-phenylethyl)butanamide, respectively.” for “measured.”
# [6] = test system: Micrococcus luteus; assay: agar disc diffusion assay, inhibition zone; format: cell-based; conditions: 30° C., 24 h, read-out: Inhibition Zone Width; for zone of inhibition at 50 µg/disc: 50 μg/disc
# Description: as §1
# as §1, with “using” for “using an”, “assay.” for “assay method.”, “disc” for “disc,”, “h. The” for “h, and then the”, “measured. The results are presented in Table 8 and Table 9 for Cyclo (D)-Pro-(D)-Phe and b3-methyl-N-(2-phenylethyl)butanamide, respectively.” for “measured.”
# [7] = test system: Staphylococcus haemolyticus; assay: agar disc diffusion assay, inhibition zone; format: cell-based; conditions: 30° C., 24 h, read-out: Inhibition Zone Width; for zone of inhibition at 50 µg/disc: 50 μg/disc
# Description: as §1
# as §1, with “using” for “using an”, “assay.” for “assay method.”, “disc” for “disc,”, “h. The” for “h, and then the”, “measured. The results are presented in Table 8 and Table 9 for Cyclo (D)-Pro-(D)-Phe and b3-methyl-N-(2-phenylethyl)butanamide, respectively.” for “measured.”
# [8] = test system: Vibrio sp. (NAP-4); assay: agar disc diffusion assay, inhibition zone; format: cell-based; conditions: 30° C., 24 h, read-out: Inhibition Zone Width; for zone of inhibition at 50 µg/disc: 50 μg/disc
# Description: as §1
# as §1, with “using” for “using an”, “assay.” for “assay method.”, “disc” for “disc,”, “h. The” for “h, and then the”, “measured. The results are presented in Table 8 and Table 9 for Cyclo (D)-Pro-(D)-Phe and b3-methyl-N-(2-phenylethyl)butanamide, respectively.” for “measured.”
# [9] = test system: Vibrio harveyi; assay: agar disc diffusion assay, inhibition zone; format: cell-based; conditions: 30° C., 24 h, read-out: Inhibition Zone Width; for zone of inhibition at 50 µg/disc: 50 μg/disc
# Description: as §1
# as §1, with “using” for “using an”, “assay.” for “assay method.”, “disc” for “disc,”, “h. The” for “h, and then the”, “measured. The results are presented in Table 8 and Table 9 for Cyclo (D)-Pro-(D)-Phe and b3-methyl-N-(2-phenylethyl)butanamide, respectively.” for “measured.”
# [10] = test system: Loktanella hongkongensis; assay: agar disc diffusion assay, inhibition zone; format: cell-based; conditions: Limimaricola hongkongensis, 30° C., 24 h, read-out: Inhibition Zone Width
# Description: as §1, with “using” for “using an”, “assay.” for “assay method.”, “disc” for “disc,”, “h. The” for “h, and then the”, “measured. The results are presented in Table 8 and Table 9 for Cyclo (D)-Pro-(D)-Phe and b3-methyl-N-(2-phenylethyl)butanamide, respectively.” for “measured.”
# [11] = test system: Vibrio vulnificus; assay: agar disc diffusion assay, inhibition zone; format: cell-based; conditions: 30° C., 24 h, read-out: Inhibition Zone Width
# Description: as §1, with “using” for “using an”, “assay.” for “assay method.”, “disc” for “disc,”, “h. The” for “h, and then the”, “measured. The results are presented in Table 8 and Table 9 for Cyclo (D)-Pro-(D)-Phe and b3-methyl-N-(2-phenylethyl)butanamide, respectively.” for “measured.”
# [12] = test system: Vibrio halioticoli; assay: agar disc diffusion assay, inhibition zone; format: cell-based; conditions: 30° C., 24 h, read-out: Inhibition Zone Width
# Description: as §1, with “using” for “using an”, “assay.” for “assay method.”, “disc” for “disc,”, “h. The” for “h, and then the”, “measured. The results are presented in Table 8 and Table 9 for Cyclo (D)-Pro-(D)-Phe and b3-methyl-N-(2-phenylethyl)butanamide, respectively.” for “measured.”
# [13] = test system: Rhodovulum sp.; assay: agar disc diffusion assay, inhibition zone; format: cell-based; conditions: 30° C., 24 h, read-out: Inhibition Zone Width
# Description: as §1, with “using” for “using an”, “assay.” for “assay method.”, “disc” for “disc,”, “h. The” for “h, and then the”, “measured. The results are presented in Table 8 and Table 9 for Cyclo (D)-Pro-(D)-Phe and b3-methyl-N-(2-phenylethyl)butanamide, respectively.” for “measured.”
# [14] = test system: Vibrio alginolyticus; assay: agar disc diffusion assay, inhibition zone; format: cell-based; conditions: 30° C., 24 h, read-out: Inhibition Zone Width
# Description: as §1, with “using” for “using an”, “assay.” for “assay method.”, “disc” for “disc,”, “h. The” for “h, and then the”, “measured. The results are presented in Table 8 and Table 9 for Cyclo (D)-Pro-(D)-Phe and b3-methyl-N-(2-phenylethyl)butanamide, respectively.” for “measured.”
# [15] = test system: Vibrio furnissii; assay: agar disc diffusion assay, inhibition zone; format: cell-based; conditions: 30° C., 24 h, read-out: Inhibition Zone Width
# Description: as §1, with “using” for “using an”, “assay.” for “assay method.”, “disc” for “disc,”, “h. The” for “h, and then the”, “measured. The results are presented in Table 8 and Table 9 for Cyclo (D)-Pro-(D)-Phe and b3-methyl-N-(2-phenylethyl)butanamide, respectively.” for “measured.”
# [16] = test system: Ruegeria sp.; assay: agar disc diffusion assay, inhibition zone; format: cell-based; conditions: 50 μg/disc, 30° C., 24 h; read-out: Inhibition Zone Width
# Description: as §1
# [17] = test system: Staphylococcus aureus; assay: agar disc diffusion assay, inhibition zone; format: cell-based; conditions: 50 μg/disc, 30° C., 24 h, read-out: Inhibition Zone Width
# Description: as §1
# [18] = test system: Balanus amphitrite larvae; assay: in vivo; conditions: Balanus amphitrite, in vivo, 24 h
# Description: (§2) The larval bioassay was conducted according to Rittschof et al. (1994), which is incorporated by reference herein in its entirety.
# (§3) Toxicity of cyclo (D)-Pro-(D)-Phe was determined using 24-well polystyrene plates. Pure compound was dissolved in DMSO and added to autoclaved FSW to form different concentrations. Competent Balanus amphitrites larvae (10±2 individuals) were added to each well with 1 ml testing solution in 5 replicates. The wells containing FSW served as the control. The 24-well plates were incubated at 30° C. for 24 h. The percent mortality was determined by counting the number of dead larvae under a dissecting microscope.
# (§4) The assay was conducted according to Rittschof et al. (1994). Data plotted are means+SD of five replicates.
# [19] = in vivo; conditions: Balanus amphitrite (barnacle) larvae, in vivo
# Description: as §2, §3, §4
# [20] = solubility in organic solvents; format: physicochemical; conditions: at 25° C. in methanol, ethanol, propanol, butanol, ethyl acetate, acetone and acetonitrile
# [21] = test system: barnacle Balanus amphitrite larvae; assay: anti-larval settlement bioassay in 24-well plates; format: in vivo; conditions: Amphibalanus amphitrite; Balanus amphitrite larvae; read-out: EC50 (anti-larval settlement)
# Description: Anti-larval settlement activity of 3-chloro-2,5-dihydroxy benzyl alcohol (compound 1) was conducted using 24-well polystyrene plates. Pure compound was dissolved in DMSO and added to autoclaved FSW at different concentrations. Competent Balanus amphitrites larvae (10±2 individuals) were added to each well with 1 ml testing solution in 5 replicates, and wells containing FSW (filtered seawater) served as control. The 24-well plates were incubated at 30° C. for 24 h. The percent settlement was determined by counting the number of settled larvae under a dissecting microscope. In all bioassays, FSW served as the control. Statistical calculations were performed with the SPSS (Statistical Package for the Social Sciences) software package, Version 11.
# as §2, §4
# For determining anti-larval settlement activity, adult Balanus amphitrile (Darwin) were collected from the intertidal zone in Hong Kong (22°19′N, 114°16′E). Nauplii obtained from several adults were mass-reared to cyprid stage at a density of 2 larvae ml^−1 in 0.22-μm-filtered seawater with 30 ppt salinity (FSW) using Chaetoceros gracilis Schutt as food and a rearing temperature of 28° C. Newly transformed cyprids were used for the experiment.
# Anti-larval settlement activity of succinic acid against B. amphitrite was determined using 24-well polystyrene plates. Pure compound was dissolved in autoclaved FSW ranged from 60-140 μg ml^−1 for B. amphitrite. Competent larvae (15±2 individuals) were added to each well with 1 ml testing solution in 5 replicates, and wells containing FSW served as the control. The 24-well plates were incubated at 30° C. for 24 h. The percent larval settlement was determined by counting the number of settled individuals under a dissecting microscope and expressed as a proportion of the total number of larvae in the well.
structure (smiles),measurement,setting,value
"[H]/N=C(/N)N[C@H]1[C@H](O)[C@@H](O)[C@H](O[C@@H]2O[C@@H](C)[C@](O)(C=O)[C@H]2O[C@@H]2O[C@@H](CO)[C@H](O)[C@@H](O)[C@@H]2NC)[C@@H](N/C(N)=N\[H])[C@@H]1O [Streptomycin, reference compound]",zone of inhibition at 50 µg/disc,[1],4 mm
same,zone of inhibition at 100 µg/disc,[1]; 100 μg (streptomycin control),3 mm
same,zone of inhibition at 50 µg/disc,[2],7 mm
same,zone of inhibition at 100 µg/disc,[2]; 100 μg (streptomycin control),6.3 ± 1.2 mm
same,zone of inhibition at 50 µg/disc,[3],5 mm
same,zone of inhibition at 100 µg/disc,[3]; 100 μg (streptomycin control),3 ± 1 mm
same,zone of inhibition at 50 µg/disc,[4],6 mm
same,zone of inhibition at 100 µg/disc,[4]; 100 μg (streptomycin control),4 ± 1 mm
same,zone of inhibition at 50 µg/disc,[5],0 mm
same,zone of inhibition at 100 µg/disc,[5]; 100 μg (streptomycin control),9 mm
same,zone of inhibition at 50 µg/disc,[6],6.5 mm
same,zone of inhibition at 100 µg/disc,[6]; 100 μg (streptomycin control),6.7 ± 0.6 mm
same,zone of inhibition at 50 µg/disc,[7],6 mm
same,zone of inhibition at 100 µg/disc,[7]; 100 μg (streptomycin control),3 mm
same,zone of inhibition at 50 µg/disc,[8],4 mm
same,zone of inhibition at 100 µg/disc,[8]; 100 μg (streptomycin control),5.7 ± 0.6 mm
same,zone of inhibition at 50 µg/disc,[9],3 mm
same,zone of inhibition at 100 µg/disc,[9]; 100 μg (streptomycin control),6 mm
same,zone of inhibition at 100 µg/disc,[10]; 100 μg (streptomycin control),4 mm
same,zone of inhibition at 100 µg/disc,[11]; 100 μg (streptomycin control),3.3 ± 0.8 mm
same,zone of inhibition at 100 µg/disc,[12]; 100 μg (streptomycin control),4.3 ± 0.6 mm
same,zone of inhibition at 100 µg/disc,[13]; 100 μg (streptomycin control),5.3 ± 1.2 mm
same,zone of inhibition at 100 µg/disc,[14]; 100 μg (streptomycin control),6.7 ± 2.3 mm
same,zone of inhibition at 100 µg/disc,[15]; 100 μg (streptomycin control),2.3 ± 0.6 mm
same,zone of inhibition at 50 µg/disc,[16],4.5 mm
same,zone of inhibition at 50 µg/disc,[17],3.5 mm
"O=C1NC(Cc2ccccc2)C(=O)N2CCCC12 (stereo not drawn) [Compound 2, cyclo-(Pro-Phe)]",zone of inhibition at 50 µg/disc,[1],1.2 ± 0.7 mm
same,zone of inhibition at 50 µg/disc,[2],0 mm
same,zone of inhibition at 50 µg/disc,[3],0 mm
same,zone of inhibition at 50 µg/disc,[4],1.7 ± 0.6 mm
same,zone of inhibition at 50 µg/disc,[5],0 mm
same,zone of inhibition at 50 µg/disc,[6],0.5 mm
same,zone of inhibition at 50 µg/disc,[7],0.8 ± 0.3 mm
same,zone of inhibition at 50 µg/disc,[8],1.3 ± 0.6 mm
same,zone of inhibition at 50 µg/disc,[9],0.5 mm
same,zone of inhibition at 50 µg/disc,[10]; 50 μg/disc,1.3 ± 0.6 mm
same,zone of inhibition at 50 µg/disc,[11]; 50 μg/disc,1 ± 0.1 mm
same,zone of inhibition at 50 µg/disc,[12]; 50 μg/disc,0 mm
same,zone of inhibition at 50 µg/disc,[13]; 50 μg/disc,0 mm
same,zone of inhibition at 50 µg/disc,[14]; 50 μg/disc,0 mm
same,zone of inhibition at 50 µg/disc,[15]; 50 μg/disc,0 mm
same,therapeutic ratio LC50/EC50,[18],1.70
same,LC50 at 24 h,[19],115 µg/mL
same,solubility,[20],soluble
same,EC50,[21],67.3 µg/mL
